Molecules are shown by their SMILES. Read-outs that look alike come from different tables or passages of the source.

Common to all, as to assay: Thermal stability shift assay
Common to all, as to format: binding

The target in one assay is CK2a1 (Homo sapiens, UniProt P68400). As to conditions: read-out: Tm shift CK2a1. A digest of the protocol: (§1)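 Inhibitor (10 μM) was mixed with kinase (2 μM) in HEPES-buffered saline (10 mM, pH 7.5; 500 mM NaCl) plus SyproOrange, then the sample was heated stepwise in a real-time PCR machine to record denaturation.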
For the next assay, the target named is CK2a2 (Homo sapiens, UniProt P19784). The conditions noted are these: read-out: Tm shift CK2a2. A digest of the protocol:
as §1

The target in a further assay is T1, PKG1 (Homo sapiens, UniProt Q13976).
T1 sequence (Q13976 1-671): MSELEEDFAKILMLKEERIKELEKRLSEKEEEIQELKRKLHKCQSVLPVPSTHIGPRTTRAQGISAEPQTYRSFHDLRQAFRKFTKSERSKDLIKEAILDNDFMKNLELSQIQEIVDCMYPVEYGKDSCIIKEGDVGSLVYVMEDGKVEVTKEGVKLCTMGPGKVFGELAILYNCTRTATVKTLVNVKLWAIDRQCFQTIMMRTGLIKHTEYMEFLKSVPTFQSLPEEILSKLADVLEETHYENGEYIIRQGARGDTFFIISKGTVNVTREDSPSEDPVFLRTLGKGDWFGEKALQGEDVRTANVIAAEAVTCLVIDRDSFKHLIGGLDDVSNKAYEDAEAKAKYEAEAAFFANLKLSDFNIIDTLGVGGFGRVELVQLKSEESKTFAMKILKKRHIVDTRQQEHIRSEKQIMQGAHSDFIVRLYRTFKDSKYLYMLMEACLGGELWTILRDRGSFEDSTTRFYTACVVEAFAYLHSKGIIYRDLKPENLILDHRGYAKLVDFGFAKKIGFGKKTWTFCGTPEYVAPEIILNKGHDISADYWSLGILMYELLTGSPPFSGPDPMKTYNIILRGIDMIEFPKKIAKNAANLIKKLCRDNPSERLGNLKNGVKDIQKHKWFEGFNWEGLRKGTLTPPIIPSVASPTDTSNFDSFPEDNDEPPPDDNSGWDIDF
The conditions noted are these: read-out: Tm shift PKG1. A digest of the protocol:
as §1

In another assay the target is T2, PLK4 (Homo sapiens, UniProt O00444).
T2 sequence (O00444 1-970): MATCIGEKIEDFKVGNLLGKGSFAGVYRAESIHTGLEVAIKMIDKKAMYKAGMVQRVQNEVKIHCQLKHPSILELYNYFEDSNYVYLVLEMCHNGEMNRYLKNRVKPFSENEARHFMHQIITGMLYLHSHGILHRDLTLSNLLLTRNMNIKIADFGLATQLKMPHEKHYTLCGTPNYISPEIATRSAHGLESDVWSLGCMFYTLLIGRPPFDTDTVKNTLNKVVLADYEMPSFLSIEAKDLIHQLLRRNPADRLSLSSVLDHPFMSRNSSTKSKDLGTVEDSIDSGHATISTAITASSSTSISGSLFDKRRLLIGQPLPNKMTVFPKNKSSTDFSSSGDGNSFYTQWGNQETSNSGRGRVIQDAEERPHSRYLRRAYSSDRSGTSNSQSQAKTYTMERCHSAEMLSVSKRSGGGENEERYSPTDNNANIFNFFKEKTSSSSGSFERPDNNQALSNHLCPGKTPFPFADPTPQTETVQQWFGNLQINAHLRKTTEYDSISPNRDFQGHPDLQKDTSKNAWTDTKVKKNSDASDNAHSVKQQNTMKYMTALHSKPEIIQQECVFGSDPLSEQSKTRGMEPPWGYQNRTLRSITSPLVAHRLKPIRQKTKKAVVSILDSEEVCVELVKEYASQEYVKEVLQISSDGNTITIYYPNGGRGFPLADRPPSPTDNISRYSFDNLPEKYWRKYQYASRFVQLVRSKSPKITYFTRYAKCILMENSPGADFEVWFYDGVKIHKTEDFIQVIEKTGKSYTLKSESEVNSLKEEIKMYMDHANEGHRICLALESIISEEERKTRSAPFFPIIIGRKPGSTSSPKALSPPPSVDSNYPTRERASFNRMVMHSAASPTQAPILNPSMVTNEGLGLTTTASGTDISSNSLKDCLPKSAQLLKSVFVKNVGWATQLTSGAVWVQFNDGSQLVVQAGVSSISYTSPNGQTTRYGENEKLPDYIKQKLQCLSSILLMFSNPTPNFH
As to conditions: read-out: Tm shift PLK4. Put shortly: as §1

The next assay concerns the target T3, RSK3~C (Homo sapiens, UniProt Q15349).
T3 construct: RSK3~C 4.5 8.9 0.7 0.4 0.5 0.1 0.4
The conditions noted are these: read-out: Tm shift RSK3~C. Put shortly:
as §1

Sequence of CK2a2 (P19784 whole entry): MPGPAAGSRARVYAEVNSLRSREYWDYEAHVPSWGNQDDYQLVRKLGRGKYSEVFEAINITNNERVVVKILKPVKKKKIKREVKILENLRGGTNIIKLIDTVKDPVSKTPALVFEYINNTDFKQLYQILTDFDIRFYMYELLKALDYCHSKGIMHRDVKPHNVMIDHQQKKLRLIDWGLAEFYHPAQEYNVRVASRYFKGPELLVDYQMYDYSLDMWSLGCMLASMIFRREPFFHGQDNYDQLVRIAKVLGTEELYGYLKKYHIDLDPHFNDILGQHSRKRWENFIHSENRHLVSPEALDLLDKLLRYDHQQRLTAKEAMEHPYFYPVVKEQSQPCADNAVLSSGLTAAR
Sequence of CK2a1 (P68400 whole entry): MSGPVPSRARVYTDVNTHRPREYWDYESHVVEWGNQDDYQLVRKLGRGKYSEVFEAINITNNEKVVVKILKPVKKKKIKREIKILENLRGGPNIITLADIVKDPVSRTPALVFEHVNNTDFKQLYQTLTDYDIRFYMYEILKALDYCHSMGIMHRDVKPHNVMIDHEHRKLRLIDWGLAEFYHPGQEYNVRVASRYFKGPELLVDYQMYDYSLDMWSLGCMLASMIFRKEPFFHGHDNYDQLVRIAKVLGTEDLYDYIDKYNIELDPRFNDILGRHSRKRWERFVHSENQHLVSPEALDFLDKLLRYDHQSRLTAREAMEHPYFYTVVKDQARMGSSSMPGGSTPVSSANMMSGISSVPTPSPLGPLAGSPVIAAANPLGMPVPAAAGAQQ
T3 sequence (Q15349 415-672 limits assumed): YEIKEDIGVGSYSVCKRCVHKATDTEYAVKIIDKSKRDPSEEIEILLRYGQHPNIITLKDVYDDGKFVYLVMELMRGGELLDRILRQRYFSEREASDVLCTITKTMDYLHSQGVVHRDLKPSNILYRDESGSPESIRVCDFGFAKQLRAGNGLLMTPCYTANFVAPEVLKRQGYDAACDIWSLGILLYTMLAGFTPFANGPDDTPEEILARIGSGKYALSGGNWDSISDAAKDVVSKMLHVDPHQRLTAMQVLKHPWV

Take `CCOC(=O)c1c(/C(C#N)=C\N)c2ccc(Cl)c(Cl)c2n1C` [KH-CB19, (E)-Ethyl 3-(2-Amino-1-Cyanovinyl)-6,7-Dichloro-1-Methyl-1H-Indole-2-Carboxylate]: the ΔTm at 10 µM is 1.3 °C on CK2a1; 1.4 °C at CK2a2; 0.8 °C at PKG1; 0.7 °C on PLK4; 0.7 °C on RSK3~C.
Consider `NC1=NC(=O)/C(=C2\CCNC(=O)c3[nH]c(Br)cc32)N1` [Hymenialdisine, hymenialdisine, reference compound], for which the ΔTm at 10 µM at CK2a1 (inhibitor 10 μM) amounted to 0.8 °C; on CK2a2 (inhibitor 10 μM), 1.2 °C; at PKG1 (inhibitor 10 μM), 1.4 °C; on PLK4 (inhibitor 10 μM), 3 °C; on RSK3~C (inhibitor 10 μM) it was 4.5 °C.
For `CCOC(=O)c1c(C(C#N)=CN)c2ccc(Cl)c(Cl)c2n1C` (mixture of isomers) [KH-CB20, (E/Z)-Ethyl 3-(2-Amino-1-Cyanovinyl)-6,7-Dichloro-1-Methyl-1H-Indole-2-Carboxylate], the ΔTm at 10 µM on CK2a1 was found to be 1.1 °C; at CK2a2, 1.3 °C; on PKG1, 0.5 °C; on PLK4 it was 0.2 °C; on RSK3~C, 0.4 °C.
For the molecule `Cn1c2c(Cl)c(Cl)ccc2c2c(C#N)c[nH]c(=O)c21` [compound 3, 7,8-Dichloro-9-Methyl-1-Oxo-2,9-Dihydro-1H-Pyrido[3,4-b]Indole-4-Carbonitrile], the ΔTm at 10 µM stood at 1.3 °C at CK2a1 (inhibitor 10 μM); 1.7 °C on CK2a2 (inhibitor 10 μM); 0.6 °C at PKG1 (inhibitor 10 μM); 0.5 °C at PLK4 (inhibitor 10 μM); 0.5 °C at RSK3~C (inhibitor 10 μM).
With `CCOC(=O)c1c(C(C#N)=CN(C)C)c2ccc(Cl)c(Cl)c2n1C` (mixture of isomers) [compound 2, (E/Z)-Ethyl 6,7-Dichloro-3-[1-Cyano-2-(Dimethylamino)Vinyl]-1-Methyl-1H-Indole-2-Carboxylate], the ΔTm at 10 µM at CK2a1 (inhibitor 10 μM) stood at 1.4 °C; at CK2a2 (inhibitor 10 μM), 0 °C; on PKG1 (inhibitor 10 μM) it was 0.3 °C; at PLK4 (inhibitor 10 μM) it was 0.2 °C; at RSK3~C (inhibitor 10 μM), 0.1 °C.

Source of the values: article PMC3145970, “Specific CLK Inhibitors from a Novel Chemotype for Regulation of Alternative Splicing” (Chemistry & Biology, 2011).
